These results are taken from US11524968B2, “Heterocyclic compound as a protein kinase inhibitor” (HK inno.N Corporation, priority 2017, dated 2022).

Usually IC50 stands for the concentration that gives 50% inhibition.

In the assay the target is JAK1 (Homo sapiens (Human), UniProt P23458). Nature of the assay: Analysis of JAK1 activity inhibition ability (ADP-Glo Kinase Assay). It counts as biochemical. To be noted: JAK1 enzyme, ADP-Glo luminescence, ATP 250 uM, IRS-itide substrate, 30° C. 40 minutes; read-out: IC50. An outline of the steps: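 JAK1 enzyme, IRS-itide substrate (40 ng/mL) and 250 uM ATP, both as prepared in kinase buffer (Tris-HCl pH 7.5, MgCl2, BSA, DTT), reacted with compound 40 min at 30 °C. ADP formed was detected by ADP-Glo luminescence; IC50 is the concentration giving 50% inhibition versus control.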
Sequence of JAK1 (P23458 whole entry): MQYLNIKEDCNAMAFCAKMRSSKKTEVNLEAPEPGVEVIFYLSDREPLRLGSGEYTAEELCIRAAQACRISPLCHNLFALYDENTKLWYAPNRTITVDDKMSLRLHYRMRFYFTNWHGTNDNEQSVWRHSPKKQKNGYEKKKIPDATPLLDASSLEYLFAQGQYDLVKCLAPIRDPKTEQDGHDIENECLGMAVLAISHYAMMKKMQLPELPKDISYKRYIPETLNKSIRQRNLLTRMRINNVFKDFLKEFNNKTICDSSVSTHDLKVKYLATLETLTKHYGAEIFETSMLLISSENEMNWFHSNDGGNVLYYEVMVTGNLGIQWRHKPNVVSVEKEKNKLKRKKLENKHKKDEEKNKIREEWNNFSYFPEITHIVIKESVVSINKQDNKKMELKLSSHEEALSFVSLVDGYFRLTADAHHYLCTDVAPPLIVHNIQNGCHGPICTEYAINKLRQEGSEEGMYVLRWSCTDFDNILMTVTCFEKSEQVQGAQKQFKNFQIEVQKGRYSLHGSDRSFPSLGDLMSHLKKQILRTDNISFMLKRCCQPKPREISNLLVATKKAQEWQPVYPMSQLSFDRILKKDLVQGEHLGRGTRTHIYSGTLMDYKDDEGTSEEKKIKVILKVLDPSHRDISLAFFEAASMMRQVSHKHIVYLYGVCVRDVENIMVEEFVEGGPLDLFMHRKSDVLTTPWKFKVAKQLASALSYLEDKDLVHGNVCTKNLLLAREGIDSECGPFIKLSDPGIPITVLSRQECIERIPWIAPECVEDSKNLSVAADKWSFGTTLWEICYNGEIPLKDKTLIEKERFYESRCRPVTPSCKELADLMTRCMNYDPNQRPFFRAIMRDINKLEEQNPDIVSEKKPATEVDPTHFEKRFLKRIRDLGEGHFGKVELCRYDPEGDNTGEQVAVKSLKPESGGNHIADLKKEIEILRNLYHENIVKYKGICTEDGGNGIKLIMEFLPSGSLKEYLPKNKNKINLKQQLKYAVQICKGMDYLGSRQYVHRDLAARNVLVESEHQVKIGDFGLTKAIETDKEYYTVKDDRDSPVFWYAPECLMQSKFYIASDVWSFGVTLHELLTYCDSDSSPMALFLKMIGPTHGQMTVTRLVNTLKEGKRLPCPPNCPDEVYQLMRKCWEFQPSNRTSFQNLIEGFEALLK
Take `CCC(C#N)C(=O)N1CC=C(c2cc(NC(=O)C3CC3)nc3[nH]ccc23)CC1` (stereo not drawn) [Example 271, N-(4-(1-(2-cyanobutanoyl)-1,2,3,6-tetrahydropyridin-4-yl)-1H-pyrrolo[2,3-b]pyridin-6-yl)cyclopropanecarboxamide]: the IC50 lay in the range of 20 to 200 nM. The figure for `O=C(Nc1cc(-c2ccc(NS(=O)(=O)c3ccc(Cl)nc3)cc2)c2cc[nH]c2n1)C1CC1` [Example 12, N-(4-(4-((6-chloropyridine)-3-sulfonamido)phenyl)-1H-pyrrolo[2,3-b]pyridin-6-yl)cyclopropanecarboxamide] is under 20 nM. To `CCS(=O)(=O)Nc1ccc(-c2cc(NC(C)=O)nc3[nH]ccc23)cc1F` [Example 710, N-(4-(4-(ethylsulfonamido)-3-fluorophenyl)-1H-pyrrolo[2,3-b]pyridin-6-yl)acetamide] belongs 20 to 200 nM.

Regarding `CCNC(=S)N1CCC(c2cc(NC(=O)C3CC3)nc3[nH]ccc23)CC1` [Example 658, N-(4-(1-(ethylcarbamothioyl)piperidin-4-yl)-1H-pyrrolo[2,3-b]pyridin-6-yl)cyclopropanecarboxamide], the IC50 is over 200 nM. Take `O=C(Nc1cc(-c2ccc(NS(=O)(=O)Cc3ccc(F)cc3)cc2)c2cc[nH]c2n1)C1CC1` [Example 36, N-(4-(4-(((4-fluorophenyl)methyl)sulfonamido)phenyl)-1H-pyrrolo[2,3-b]pyridin-6-yl)cyclopropanecarboxamide]: the IC50 was under 20 nM.

For `CC1CN(C(=O)c2ccnc(N)c2)CC=C1c1cc(NC(=O)C2CC2)nc2[nH]ccc12` (stereo not drawn) [Example 381, N-(4-(1-(2-aminoisonicotinoyl)-3-methyl-1,2,3,6-tetrahydropyridin-4-yl)-1H-pyrrolo[2,3-b]pyridin-6-yl)cyclopropanecarboxamide], the IC50 is over 200 nM.

For `N#CCC1(N2CC=C(c3cc(NC(=O)C4CC4)nc4[nH]ccc34)CC2)CN(S(=O)(=O)C(F)(F)F)C1` [Example 619, N-(4-(1-(3-(cyanomethyl)-1-((trifluoromethyl)sulfonyl)azetidin-3-yl)-1,2,3,6-tetrahydropyridin-4-yl)-1H-pyrrolo[2,3-b]pyridin-6-yl)cyclopropanecarboxamide], the IC50 is under 20 nM.

With `N#CCCn1cc(-c2cc(NC(=O)C3CC3)nc3[nH]ccc23)cn1` [Example 477, N-(4-(1-(2-cyanoethyl)-1H-pyrazol-4-yl)-1H-pyrrolo[2,3-b]pyridin-6-yl)cyclopropanecarboxamide], the IC50 was under 20 nM. For the molecule `O=C(Nc1cc(C2=CCC(NC3CCN(C(=O)c4cc(F)cc(F)c4)CC3)CC2)c2cc[nH]c2n1)C1CC1` (stereo not drawn) [Example 491, N-(4-(4-((1-(3,5-difluorobenzoyl)piperidin-4-yl)amino)cyclohex-1-en-1-yl)-1H-pyrrolo[2,3-b]pyridin-6-yl)cyclopropanecarboxamide], the IC50 was over 200 nM.

Take `O=C(Nc1cc(-c2ccc(CNC3CCS(=O)(=O)CC3)cc2)c2cc[nH]c2n1)C1CC1` [Example 596, N-(4-(4-(((1,1-dioxidotetrahydro-2H-thiopyran-4-yl)amino)methyl)phenyl)-1H-pyrrolo[2,3-b]pyridin-6-yl)cyclopropanecarboxamide]: the 50% inhibitory concentration (IC50) was in the range of 20 to 200 nM.

Consider `CC1CN(C(=O)CCl)CC=C1c1cc(NC(=O)C2CC2)nc2[nH]ccc12` (stereo not drawn) [Example 348, N-(4-(1-(2-chloroacetyl)-3-methyl-1,2,3,6-tetrahydropyridin-4-yl)-1H-pyrrolo[2,3-b]pyridin-6-yl)cyclopropanecarboxamide], for which the IC50 is 20 to 200 nM. The figure for `O=C(Nc1cc(-c2ccc(NS(=O)(=O)C(F)F)cc2)c2cc[nH]c2n1)C1CC1` [Example 50, N-(4-(4-((difluoromethyl)sulfonamido)phenyl)-1H-pyrrolo[2,3-b]pyridin-6-yl)cyclopropanecarboxamide] is 20 to 200 nM; for `CCOCCS(=O)(=O)Nc1ccc(-c2cc(NC(=O)C3CC3)nc3[nH]ccc23)cc1` [Example 53, N-(4-(4-((2-ethoxyethyl)sulfonamido)phenyl)-1H-pyrrolo[2,3-b]pyridin-6-yl)cyclopropanecarboxamide] it is 20 to 200 nM; for `CC1CN(C(=O)c2cccc(Br)c2)CC=C1c1cc(NC(=O)C2CC2)nc2[nH]ccc12` (stereo not drawn) [Example 334, N-(4-(1-(3-bromobenzoyl)-3-methyl-1,2,3,6-tetrahydropyridin-4-yl)-1H-pyrrolo[2,3-b]pyridin-6-yl)cyclopropanecarboxamide] it is 20 to 200 nM. The figure for `CCS(=O)(=O)N1C2CCC1CN(c1nc(NC(=O)C3CC3)nc3[nH]ccc13)C2` [Example 669, N-(4-(8-(ethylsulfonyl)-3,8-diazabicyclo[3.2.1]octan-3-yl)-7H-pyrrolo[2,3-d]pyrimidin-2-yl)cyclopropanecarboxamide] is 20 to 200 nM; for `CCCC1C=C(c2cc(NC(=O)C3CC3)nc3[nH]ccc23)CCN1C(=O)CC#N` (stereo not drawn) [Example 411, N-(4-(1-(2-cyanoacetyl)-6-propyl-1,2,3,6-tetrahydropyridin-4-yl)-1H-pyrrolo[2,3-b]pyridin-6-yl)cyclopropanecarboxamide] it is 20 to 200 nM. The figure for `O=C(Nc1cc(C2=CCN(C(=O)CC(F)(F)F)C2)c2cc[nH]c2n1)C1CC1` [Example 428, N-(4-(1-(3,3,3-trifluoropropanoyl)-2,5-dihydro-1H-pyrrol-3-yl)-1H-pyrrolo[2,3-b]pyridin-6-yl)cyclopropanecarboxamide] is over 200 nM; for `N#CCC1(N2CC=C(c3cc(NC(=O)C4CC4)nc4[nH]ccc34)CC2)CN(C(=O)NCC(F)(F)F)C1` [Example 624, 3-(cyanomethyl)-3-(4-(6-(cyclopropanecarboxamido)-1H-pyrrolo[2,3-b]pyridin-4-yl)-3,6-dihydropyridin-1 (2H)-yl)-N-(2,2,2-trifluoroethyl)azetidine-1-carboxamide] it is 20 to 200 nM; for `CC(C)S(=O)(=O)N1CC(CC#N)(N2CC=C(c3cc(NC(=O)C4CC4)nc4[nH]ccc34)CC2)C1` [Example 617, N-(4-(1-(3-(cyanomethyl)-1-(isopropylsulfonyl)azetidin-3-yl)-1,2,3,6-tetrahydropyridin-4-yl)-1H-pyrrolo[2,3-b]pyridin-6-yl)cyclopropanecarboxamide] it is under 20 nM. `O=C(Cc1ccc(-c2cc(NC(=O)C3CC3)nc3[nH]ccc23)cc1)NCC(F)(F)F` [Example 537, N-(4-(4-(2-oxo-2-((2,2,2-trifluoroethyl)amino)ethyl)phenyl)-1H-pyrrolo[2,3-b]pyridin-6-yl)cyclopropanecarboxamide]: the IC50 was in the range of 20 to 200 nM.

In the case of `O=C(Nc1cc(-c2ccc(NS(=O)(=O)c3ccc4c(c3)OCO4)cc2)c2cc[nH]c2n1)C1CC1` [Example 34, N-(4-(4-(benzo[d][1,3]dioxole-5-sulfonamido)phenyl)-1H-pyrrolo[2,3-b]pyridin-6-yl)cyclopropanecarboxamide], the IC50 is under 20 nM. To `O=C(Nc1cc(-c2ccc(NS(=O)(=O)C3CC3)cc2C(F)(F)F)c2cc[nH]c2n1)C1CC1` [Example 118, N-(4-(4-(cyclopropanesulfonamido)-2-(trifluoromethyl)phenyl)-1H-pyrrolo[2,3-b]pyridin-6-yl)cyclopropanecarboxamide] belongs 20 to 200 nM. As for `N#CCC1(CS(=O)(=O)Nc2c(F)cc(-c3cc(NC(=O)C4CC4)nc4[nH]ccc34)cc2F)CC1` [Example 108, N-(4-(4-(((1-(cyanomethyl)cyclopropyl)methyl)sulfonamido)-3,5-difluorophenyl)-1H-pyrrolo[2,3-b]pyridin-6-yl)cyclopropanecarboxamide], the IC50 was under 20 nM. To `CC(C)(C)OC(=O)N1CCC=C(c2cc(NC(=O)C3CC3)nc3[nH]ccc23)C1` [Example 460, tert-butyl 5-(6-(cyclopropanecarboxamido)-1H-pyrrolo[2,3-b]pyridin-4-yl)-3,6-dihydropyridine-1 (2H)-carboxylate] belongs over 200 nM; to `CS(=O)(=O)N1CCN(c2cc(NC(=O)C3CC3)nc3[nH]ccc23)CC1` [Example 660, N-(4-(4-(methylsulfonyl)piperazin-1-yl)-1H-pyrrolo[2,3-b]pyridin-6-yl)cyclopropanecarboxamide], over 200 nM; to `CC[C@@H]1C=C(c2cc(NC(=O)C3CC3)nc3[nH]ccc23)CCN1C(=O)CC#N` [Example 416, (R)—N-(4-(1-(2-cyanoacetyl)-6-ethyl-1,2,3,6-tetrahydropyridin-4-yl)-1H-pyrrolo[2,3-b]pyridin-6-yl)cyclopropanecarboxamide], under 20 nM. To `N#CC1(CS(=O)(=O)N2C3CCC2CN(c2cc(NC(=O)C4CC4)nc4[nH]ccc24)C3)CC1` [Example 667, N-(4-(8-(((1-cyanocyclopropyl)methyl)sulfonyl)-3,8-diazabicyclo[3.2.1]octan-3-yl)-1H-pyrrolo[2,3-b]pyridin-6-yl)cyclopropanecarboxamide] belongs under 20 nM. The figure for `N#CCC(=O)NC1CCN(c2cc(NC(=O)C3CC3)nc3[nH]ccc23)CC1` [Example 675, N-(4-(4-(2-cyanoacetamido)piperidin-1-yl)-1H-pyrrolo[2,3-b]pyridin-6-yl)cyclopropanecarboxamide] is over 200 nM; for `O=C(Nc1cc(C2=CCN(S(=O)(=O)N3CCOCC3)CC2)c2cc[nH]c2n1)C1CC1` [Example 234, N-(4-(1-(morpholinosulfonyl)-1,2,3,6-tetrahydropyridin-4-yl)-1H-pyrrolo[2,3-b]pyridin-6-yl)cyclopropanecarboxamide] it is 20 to 200 nM; for `CCS(=O)(=O)Nc1ccc(-c2cc(NC(=O)C3CC3)[n+]([O-])c3[nH]ccc23)cc1F` [Example 97, 6-(cyclopropanecarboxamido)-4-(4-(ethylsulfonamido)-3-fluorophenyl)-1H-pyrrolo[2,3-b]pyridine 7-oxide] it is 20 to 200 nM.
